In patent US4565811A, “Sodium salt of ursodeoxycholic sulphate” (Istituto Biologico Chemioterapico "ABC" S.p.A., priority 1983, dated 1986):
Counter-ions that a name gives are not always drawn.

What was measured:
[1] = system: rat; experiment: Acute toxicity of US in the rat by intraperitoneal administration; type: in vivo; parameters: key to Symptomatology: N: none; D: depression; details: for Symptomatology: 8 days; for Died animals: groups of 10, 8 days
Description: (§1) Acute toxicity of sodium ursosulphate was tested in rats by administering the different doses of the compound directly in a physiologic solution at 0.9% in a volume either of 10 ml/kg by oral route through a probe directly to the stomach or of 5 ml/kg intraperitoneously or intravenously.
(§2) The dosages administered to groups of 10 animals each are reported in the following Tables 3 to 5 together with the symptomatology observed for a period of 8 days.

[2] = as above; type: in vivo; parameters: key to Symptomatology: N: none; D: depression; details: rat, in vivo, ip
Description: as §1, §2

[3] = system: rat; experiment: Acute toxicity of US in the rat by intravenous route; type: in vivo; parameters: key to Symptomatology: N: none; D: depression; details: for Symptomatology: 8 days; for Died animals: groups of 10, 8 days
Description: as §1, §2

[4] = as above; type: in vivo; parameters: key to Symptomatology: N: none; D: depression; details: rat, in vivo
Description: as §1, §2

[5] = system: rat; experiment: Acute toxicity of US in the rat by oral administration; type: in vivo; parameters: key to Symptomatology: N: none; D: depression; details: for Symptomatology: 8 days; for Died animals: groups of 10, 8 days
Description: as §1, §2

[6] = as above; type: in vivo; parameters: key to Symptomatology: N: none; D: depression; details: rat, in vivo
Description: as §1, §2

[7] = Toxicity of sodium ursosulphate compared with ursodeoxycholic acid; details: in vivo
[8] = system: hyperdislipidemia caused by Triton WR-1339 in the rat; experiment: Action on the hyperdislipidemia caused by Triton WR-1339 in the rat; type: in vivo, Albinus rats (Witar); details: for Alfa-Lipoproteins: Increase towards Group 2 / Beta-Lipoproteins: Inhibition towards Group 2 / Beta/alfa ratio: Inhibition towards Group 2 / Total cholesterol: Inhibition in comparison with Group 2 / Total lipids: Inhibition in comparison with Group 2 / Triglycerids: Inhibition in comparison with Group 2: vs Group 2 (Triton control); for Activity compared with UA: oral
Description: Action on the hyperdislipidemia caused by Triton WR-1339 in the rat
Albinus rats (Witar) of 300-320 g each, having been fed only with water "ad libitum" for 12 hours, were treated with US and UA, by oral route, 4 hours before and 15 hours after the administration intraperitenously of Triton WR-1339 at the dosage of 300 mg/kg in 10 ml/kg of physiologic solution at 0.9%.
US and UA dosages were 25, 50 and 100 mg/kg respectively and the rats were divided in the following groups of 10 animals each.
Group 1: Controls treated with 10 ml/kg of physiological solution at 0.9% orally.
Group 2: Controls treated with 300 mg/kg of Triton WR-1339 i.p. and 10 ml/kg of carboxy methyl cellulose (CMC) at 0.5%.
Group 3, 4 and 5: UA at 25, 50 and 100 mg/kg respectively suspended in 10 ml/kg of CMC at 0.5%.
Groups 6, 7 and 8: US at 25, 50 and 100 mg/kg respectively dissolved in 10 ml/kg of physiologic solution.
The following Tables 1 and 2 list the results of blood-tests from addominal aorta of rats sacrificed 5 hours after the last treatment: […]

[9] = Solubility in water / acidity; type: physicochemical; details: water
[10] = rat, up to the administered doses
[11] = 25 mg/kg os, Triton WR-1339 rat
[12] = 50 mg/kg os, Triton WR-1339 rat
[13] = 100 mg/kg os, Triton WR-1339 rat

CC(CCC(=O)O)C1CCC2C3C(OS(=O)(=O)O)CC4CC(OS(=O)(=O)O)CCC4(C)C3CCC12C (stereo not drawn) [US, sodium salt of ursodeoxycholic O-sulphate]
Symptomatology ([1]; 500 mg/kg): N | Died animals ([1]; 500 mg/kg): 0 animals | Symptomatology ([1]; 600 mg/kg): N | Died animals ([1]; 600 mg/kg): 0 animals | Symptomatology ([1]; 700 mg/kg): D | Died animals ([1]; 700 mg/kg): 0 animals | Symptomatology ([1]; 800 mg/kg): D | Died animals ([1]; 800 mg/kg): 0 animals | Symptomatology ([1]; 900 mg/kg): D | Died animals ([1]; 900 mg/kg): 2 animals | LD50 [1, 10]: the LD50 was not reached up to the administered doses | mortality at 192 h ([2]; 500 mg/kg): 0% | mortality at 192 h ([2]; 600 mg/kg): 0% | mortality at 192 h ([2]; 700 mg/kg): 0% | mortality at 192 h ([2]; 800 mg/kg): 0% | mortality at 192 h ([2]; 900 mg/kg): 10% | Symptomatology ([3]; 400 mg/kg): N | Died animals ([3]; 400 mg/kg): 0 animals | Symptomatology ([3]; 500 mg/kg): N | Died animals ([3]; 500 mg/kg): 0 animals | Symptomatology ([3]; 600 mg/kg): D | Died animals ([3]; 600 mg/kg): 0 animals | Symptomatology ([3]; 650 mg/kg): D + C | Died animals ([3]; 650 mg/kg): 1 animals | Symptomatology ([3]; 700 mg/kg): D + C | Died animals ([3]; 700 mg/kg): 1 animals | Symptomatology ([3]; 750 mg/kg): D + C | Died animals ([3]; 750 mg/kg): 2 animals | LD50 [3, 10]: the LD50 was not reached up to the administered doses | mortality at 192 h ([4]; 400 mg/kg): 0% | mortality at 192 h ([4]; 500 mg/kg): 0% | mortality at 192 h ([4]; 600 mg/kg): 0% | mortality at 192 h ([4]; 650 mg/kg): 10% | mortality at 192 h ([4]; 700 mg/kg): 10% | mortality at 192 h ([4]; 750 mg/kg): 20% | Symptomatology ([5]; 1000 mg/kg): N | Died animals ([5]; 1000 mg/kg): 0 animals | Symptomatology ([5]; 2000 mg/kg): N | Died animals ([5]; 2000 mg/kg): 0 animals | Symptomatology ([5]; 3000 mg/kg): D | Died animals ([5]; 3000 mg/kg): 0 animals | Symptomatology ([5]; 4000 mg/kg): D | Died animals ([5]; 4000 mg/kg): 0 animals | Symptomatology ([5]; 5000 mg/kg): D | Died animals ([5]; 5000 mg/kg): 2 animals | Symptomatology ([5]; 6000 mg/kg): D | Died animals ([5]; 6000 mg/kg): 4 animals | LD50 [5, 10]: the LD50 was not reached up to the administered doses | mortality at 192 h ([6]; 1000 mg/kg): 0% | mortality at 192 h ([6]; 2000 mg/kg): 0% | mortality at 192 h ([6]; 3000 mg/kg): 0% | mortality at 192 h ([6]; 4000 mg/kg): 0% | mortality at 192 h ([6]; 5000 mg/kg): 20% | mortality at 192 h ([6]; 6000 mg/kg): 40% | Toxicity compared with ursodeoxycholic acid [7]: does not show any significative differences and maintains the values already known for ursodeoxycholic acid | Alfa-Lipoproteins Average ± SD [8, 11]: 29,2 ± 6,7 mg/100 ml serum | Beta-Lipoproteins Average ± SD [8, 11]: 191,5 ± 42,1 mg/100 ml serum | Beta/alfa ratio Average ± SD [8, 11]: 7,23 ± 3,6 mg/100 ml serum | Total cholesterol Average ± SD [8, 11]: 220,8 ± 36,4 mg/100 ml serum | Total lipids Average ± SD [8, 11]: 2697,1 ± 706,8 mg/100 ml serum | Triglycerids Average ± SD [8, 11]: 1040,6 ± 91,08 mg/100 ml serum | Alfa-Lipoproteins: Increase towards Group 2 ([8]; 25 mg/kg os): +30,4% | Beta-Lipoproteins: Inhibition towards Group 2 ([8]; 25 mg/kg os): -29,9% | Beta/alfa ratio: Inhibition towards Group 2 ([8]; 25 mg/kg os): -42,0% | Total cholesterol: Inhibition in comparison with Group 2 ([8]; 25 mg/kg os): -25,4% | Total lipids: Inhibition in comparison with Group 2 ([8]; 25 mg/kg os): -29,4% | Triglycerids: Inhibition in comparison with Group 2 ([8]; 25 mg/kg os): -20,7% | Alfa-Lipoproteins Average ± SD [8, 12]: 39,32 ± 5,5 mg/100 ml serum | Beta-Lipoproteins Average ± SD [8, 12]: 123,8 ± 27,7 mg/100 ml serum | Beta/alfa ratio Average ± SD [8, 12]: 3,15 ± 1,1 mg/100 ml serum | Total cholesterol Average ± SD [8, 12]: 163,2 ± 25,7 mg/100 ml serum | Total lipids Average ± SD [8, 12]: 1972,6 ± 550,0 mg/100 ml serum | Triglycerids Average ± SD [8, 12]: 654,3 ± 206,5 mg/100 ml serum | Alfa-Lipoproteins: Increase towards Group 2 ([8]; 50 mg/kg os): +75,4% | Beta-Lipoproteins: Inhibition towards Group 2 ([8]; 50 mg/kg os): -54,7% | Beta/alfa ratio: Inhibition towards Group 2 ([8]; 50 mg/kg os): -74,7% | Total cholesterol: Inhibition in comparison with Group 2 ([8]; 50 mg/kg os): -44,3% | Total lipids: Inhibition in comparison with Group 2 ([8]; 50 mg/kg os): -48,4% | Triglycerids: Inhibition in comparison with Group 2 ([8]; 50 mg/kg os): -50,1% | Alfa-Lipoproteins Average ± SD [8, 13]: 44,8 ± 8,5 mg/100 ml serum | Beta-Lipoproteins Average ± SD [8, 13]: 102,3 ± 36,9 mg/100 ml serum | Beta/alfa ratio Average ± SD [8, 13]: 2,46 ± 1,2 mg/100 ml serum | Total cholesterol Average ± SD [8, 13]: 147,2 ± 31,3 mg/100 ml serum | Total lipids Average ± SD [8, 13]: 1949,7 ± 273,9 mg/100 ml serum | Triglycerids Average ± SD [8, 13]: 583,4 ± 121,1 mg/100 ml serum | Alfa-Lipoproteins: Increase towards Group 2 ([8]; 100 mg/kg os): +100% | Beta-Lipoproteins: Inhibition towards Group 2 ([8]; 100 mg/kg os): -72,6% | Beta/alfa ratio: Inhibition towards Group 2 ([8]; 100 mg/kg os): -80,3% | Total cholesterol: Inhibition in comparison with Group 2 ([8]; 100 mg/kg os): -50,3% | Total lipids: Inhibition in comparison with Group 2 ([8]; 100 mg/kg os): -48,9% | Triglycerids: Inhibition in comparison with Group 2 ([8]; 100 mg/kg os): -55,5% | Dose dependence of activity inhibiting the hyperdislipidemia ([8]; 25, 50 and 100 mg/kg oral, Triton WR-1339 rat): depends on the dosage | Activity compared with UA ([8]; Triton WR-1339 rat): more active than UA in all the considered tests | Activity compared with UA ([8]; Triton WR-1339 rat, listed as sodium ursosulphate (US)): an activity in some cases higher than that of ursodeoxycholic acid | Solubility in water ([9]; listed as Sodium ursosulphate): very soluble in water | Solubility in water ([9]; listed as sodium ursosulphate): very soluble in water
